Data as given in paper PMC12475274, “Harnessing indole scaffolds to identify small-molecule IRE1α inhibitors modulating XBP1 mRNA splicing” (Nature Communications, 2025).

Assays:
dephosphorylated IRE1α = target: T1, dephosphorylated IRE1α (Homo sapiens, UniProt O75460); assay: Microscale thermophoresis (MST), IRE1α; format: binding
T1 construct: Human IRE1α kinase and RNase domain (residues 547–977) was subcloned into pLIB plasmid; His tag (with TEV cleavage site) (N, cleaved yes); made in house; host or cells: Sf9 insect cells, baculovirus (Bac-to-Bac)
Procedure: Dephosphorylated IRE1α protein and phosphorylated IRE1α protein were labeled and purified using Protein Labeling Kit RED-NHS 2nd Generation (NanoTemper, MO-L011), following the manufacturer’s protocol. The labeling buffer contained 50 mM HEPES, pH 7.5, 200 mM NaCl, 2% glycerol, 0.5 mM TCEP, 0.05% tween20. MST experiments were performed using the Monolith Nt.115 instrument (NanoTemper), and binding experiments were conducted according to the instrument’s instructions. Compounds were serially diluted 2-fold and incubated with labeled IRE1α protein at a final concentration of 20 nM. The highest compound concentration measured was 250 μM with a final DMSO concentration of 2.5%. Measurements were carried out using the red detector with 60% excitation power. Data were analyzed using the manufacturer’s software, and results from three individual measurements were merged for analysis.

ABL1 = ABL1 (Homo sapiens, UniProt P00519); assay: Kinase profiling (SelectScreen), ZLYTE; format: biochemical
Procedure: (§1) Kinase profiling was conducted by the SelectScreen Kinase Profiling Services (Thermo Fisher), using Z′-LYTE, Adapta, or LanthaScreen Eu Kinase Binding Assay for different kinases. The kinome phylogenetic tree was generated using the KinMap web portal.

ACVR1B (ALK4) = ACVR1B (ALK4) (Homo sapiens, UniProt P36896); assay: Kinase profiling (SelectScreen), ZLYTE; format: biochemical
Procedure: as §1

AKT1 (PKB alpha) = AKT1 (PKB alpha) (Homo sapiens, UniProt P31749); assay: Kinase profiling (SelectScreen), ZLYTE; format: biochemical
Procedure: as §1

BTK = BTK (Homo sapiens, UniProt Q06187); assay: Kinase profiling (SelectScreen), ZLYTE; format: biochemical
Procedure: as §1

CDK1/cyclin B = CDK1/cyclin B (Homo sapiens, UniProt P06493); assay: Kinase profiling (SelectScreen), ZLYTE; format: biochemical
Procedure: as §1

CLK2 = CLK2 (Homo sapiens, UniProt P49760); assay: Kinase profiling (SelectScreen), ZLYTE; format: biochemical
CLK2, sequence (P49760 whole entry): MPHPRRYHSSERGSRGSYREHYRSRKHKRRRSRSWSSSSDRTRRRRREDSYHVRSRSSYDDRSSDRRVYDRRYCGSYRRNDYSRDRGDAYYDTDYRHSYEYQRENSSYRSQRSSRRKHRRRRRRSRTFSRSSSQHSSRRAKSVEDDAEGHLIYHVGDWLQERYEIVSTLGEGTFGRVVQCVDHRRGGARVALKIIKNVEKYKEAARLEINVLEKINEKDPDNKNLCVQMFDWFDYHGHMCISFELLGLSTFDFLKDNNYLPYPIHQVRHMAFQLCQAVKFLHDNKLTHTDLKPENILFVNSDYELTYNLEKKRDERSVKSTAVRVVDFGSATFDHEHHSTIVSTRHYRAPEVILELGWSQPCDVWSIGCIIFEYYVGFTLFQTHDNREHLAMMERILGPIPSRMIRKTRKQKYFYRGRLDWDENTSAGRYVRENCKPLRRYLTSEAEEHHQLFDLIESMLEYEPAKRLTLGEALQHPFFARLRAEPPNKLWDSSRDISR
Procedure: as §1

DNA-PK = DNA-PK (Homo sapiens, UniProt P78527); assay: Kinase profiling (SelectScreen), ZLYTE; format: biochemical
Procedure: as §1

DYRK1A = DYRK1A (Homo sapiens, UniProt Q13627); assay: Kinase profiling (SelectScreen), ZLYTE; format: biochemical
Procedure: as §1

EEF2K = EEF2K (Homo sapiens, UniProt O00418); assay: Kinase profiling (SelectScreen), ZLYTE; format: biochemical
Procedure: as §1

EPHA2 = EPHA2 (Homo sapiens, UniProt P29317); assay: Kinase profiling (SelectScreen), ZLYTE; format: biochemical
Procedure: as §1

EPHB4 = EPHB4 (Homo sapiens, UniProt P54760); assay: Kinase profiling (SelectScreen), ZLYTE; format: biochemical
EPHB4, sequence (P54760 16-987): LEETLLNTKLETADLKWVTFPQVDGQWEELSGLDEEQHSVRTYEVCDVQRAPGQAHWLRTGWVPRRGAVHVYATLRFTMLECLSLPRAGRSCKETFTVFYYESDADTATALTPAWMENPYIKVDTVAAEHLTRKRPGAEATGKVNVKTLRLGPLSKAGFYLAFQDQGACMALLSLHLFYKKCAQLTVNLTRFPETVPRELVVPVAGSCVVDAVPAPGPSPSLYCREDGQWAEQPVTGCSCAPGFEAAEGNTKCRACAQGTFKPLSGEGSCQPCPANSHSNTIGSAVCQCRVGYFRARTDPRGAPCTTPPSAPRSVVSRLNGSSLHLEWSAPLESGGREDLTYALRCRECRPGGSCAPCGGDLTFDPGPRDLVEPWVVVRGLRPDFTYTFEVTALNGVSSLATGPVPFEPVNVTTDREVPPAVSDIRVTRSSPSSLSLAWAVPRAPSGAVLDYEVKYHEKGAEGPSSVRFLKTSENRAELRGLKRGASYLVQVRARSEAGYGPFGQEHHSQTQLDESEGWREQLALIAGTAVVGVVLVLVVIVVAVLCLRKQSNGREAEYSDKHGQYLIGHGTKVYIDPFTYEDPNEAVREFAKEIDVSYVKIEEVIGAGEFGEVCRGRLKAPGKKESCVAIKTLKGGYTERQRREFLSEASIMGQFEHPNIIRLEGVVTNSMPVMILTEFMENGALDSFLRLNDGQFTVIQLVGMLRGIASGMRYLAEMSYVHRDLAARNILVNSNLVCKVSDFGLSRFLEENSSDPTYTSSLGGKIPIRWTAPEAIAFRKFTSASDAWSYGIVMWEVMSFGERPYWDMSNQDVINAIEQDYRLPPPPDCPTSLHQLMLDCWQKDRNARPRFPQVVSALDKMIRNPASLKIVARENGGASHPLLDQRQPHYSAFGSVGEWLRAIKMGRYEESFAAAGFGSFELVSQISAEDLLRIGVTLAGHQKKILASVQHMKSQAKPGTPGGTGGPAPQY
Procedure: as §1

HIPK4 = HIPK4 (Homo sapiens, UniProt Q8NE63); assay: Kinase profiling (SelectScreen), ZLYTE; format: biochemical
Procedure: as §1

IKBKB (IKK beta) = IKBKB (IKK beta) (Homo sapiens, UniProt O14920); assay: Kinase profiling (SelectScreen), ZLYTE; format: biochemical
Procedure: as §1

LCK = LCK (Homo sapiens, UniProt P06239); assay: Kinase profiling (SelectScreen), ZLYTE; format: biochemical
Procedure: as §1

MAPKAPK2 = MAPKAPK2 (Homo sapiens, UniProt P49137); assay: Kinase profiling (SelectScreen), ZLYTE; format: biochemical
Procedure: as §1

NEK1 = NEK1 (Homo sapiens, UniProt Q96PY6); assay: Kinase profiling (SelectScreen), ZLYTE; format: biochemical
Procedure: as §1

NTRK2 (TRKB) = NTRK2 (TRKB) (Homo sapiens, UniProt Q16620); assay: Kinase profiling (SelectScreen), ZLYTE; format: biochemical
Procedure: as §1

PDGFRB (PDGFR beta) = PDGFRB (PDGFR beta) (Homo sapiens, UniProt P09619); assay: Kinase profiling (SelectScreen), ZLYTE; format: biochemical
Procedure: as §1

PHKG2 = PHKG2 (Homo sapiens, UniProt P15735); assay: Kinase profiling (SelectScreen), ZLYTE; format: biochemical
Procedure: as §1

PRKACA (PKA) = PRKACA (PKA) (Homo sapiens, UniProt P17612); assay: Kinase profiling (SelectScreen), ZLYTE; format: biochemical
Procedure: as §1

RPS6KA3 (RSK2) = RPS6KA3 (RSK2) (Homo sapiens, UniProt P51812); assay: Kinase profiling (SelectScreen), ZLYTE; format: biochemical
Procedure: as §1

GSG2 (Haspin) = GSG2 (Haspin) (Homo sapiens, UniProt Q8TF76); assay: Kinase profiling (SelectScreen), Adapta; format: biochemical
Procedure: as §1

ACVR1 (ALK2) = ACVR1 (ALK2) (Homo sapiens, UniProt Q04771); assay: Kinase profiling (SelectScreen), LanthaScreen Binding; conditions: IA107 at 5 μM
Procedure: as §1

BMPR2 = BMPR2 (Homo sapiens, UniProt Q13873); assay: as above; conditions: IA107 at 5 μM
BMPR2, sequence (Q13873 27-1038): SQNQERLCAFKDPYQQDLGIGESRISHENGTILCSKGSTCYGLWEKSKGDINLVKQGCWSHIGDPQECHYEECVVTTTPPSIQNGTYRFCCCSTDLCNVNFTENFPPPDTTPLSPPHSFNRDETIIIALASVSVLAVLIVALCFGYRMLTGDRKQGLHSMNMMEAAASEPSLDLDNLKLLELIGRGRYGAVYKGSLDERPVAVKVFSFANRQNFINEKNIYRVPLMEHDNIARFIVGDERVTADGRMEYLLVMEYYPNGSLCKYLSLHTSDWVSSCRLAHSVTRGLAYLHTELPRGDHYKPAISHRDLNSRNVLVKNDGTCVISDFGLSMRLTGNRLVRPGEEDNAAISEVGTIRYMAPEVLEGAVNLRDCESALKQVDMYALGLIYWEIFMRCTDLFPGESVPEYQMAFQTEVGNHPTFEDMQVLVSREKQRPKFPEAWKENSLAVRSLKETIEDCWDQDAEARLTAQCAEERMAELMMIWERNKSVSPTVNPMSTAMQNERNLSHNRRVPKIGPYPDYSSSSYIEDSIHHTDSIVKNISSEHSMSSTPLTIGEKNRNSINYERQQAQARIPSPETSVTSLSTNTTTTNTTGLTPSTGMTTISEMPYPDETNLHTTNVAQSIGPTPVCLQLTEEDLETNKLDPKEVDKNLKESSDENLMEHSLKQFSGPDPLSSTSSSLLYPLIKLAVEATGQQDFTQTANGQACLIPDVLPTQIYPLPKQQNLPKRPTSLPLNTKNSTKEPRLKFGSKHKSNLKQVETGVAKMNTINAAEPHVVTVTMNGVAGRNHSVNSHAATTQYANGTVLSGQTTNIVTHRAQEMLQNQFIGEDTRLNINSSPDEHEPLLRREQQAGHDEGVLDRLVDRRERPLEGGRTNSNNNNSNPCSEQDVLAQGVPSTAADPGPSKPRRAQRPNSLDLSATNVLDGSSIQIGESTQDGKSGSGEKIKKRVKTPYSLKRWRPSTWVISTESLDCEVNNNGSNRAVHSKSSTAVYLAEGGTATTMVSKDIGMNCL
Procedure: as §1

CASK = CASK (Homo sapiens, UniProt O14936); assay: as above; conditions: IA107 at 5 μM
CASK, sequence (O14936 whole entry): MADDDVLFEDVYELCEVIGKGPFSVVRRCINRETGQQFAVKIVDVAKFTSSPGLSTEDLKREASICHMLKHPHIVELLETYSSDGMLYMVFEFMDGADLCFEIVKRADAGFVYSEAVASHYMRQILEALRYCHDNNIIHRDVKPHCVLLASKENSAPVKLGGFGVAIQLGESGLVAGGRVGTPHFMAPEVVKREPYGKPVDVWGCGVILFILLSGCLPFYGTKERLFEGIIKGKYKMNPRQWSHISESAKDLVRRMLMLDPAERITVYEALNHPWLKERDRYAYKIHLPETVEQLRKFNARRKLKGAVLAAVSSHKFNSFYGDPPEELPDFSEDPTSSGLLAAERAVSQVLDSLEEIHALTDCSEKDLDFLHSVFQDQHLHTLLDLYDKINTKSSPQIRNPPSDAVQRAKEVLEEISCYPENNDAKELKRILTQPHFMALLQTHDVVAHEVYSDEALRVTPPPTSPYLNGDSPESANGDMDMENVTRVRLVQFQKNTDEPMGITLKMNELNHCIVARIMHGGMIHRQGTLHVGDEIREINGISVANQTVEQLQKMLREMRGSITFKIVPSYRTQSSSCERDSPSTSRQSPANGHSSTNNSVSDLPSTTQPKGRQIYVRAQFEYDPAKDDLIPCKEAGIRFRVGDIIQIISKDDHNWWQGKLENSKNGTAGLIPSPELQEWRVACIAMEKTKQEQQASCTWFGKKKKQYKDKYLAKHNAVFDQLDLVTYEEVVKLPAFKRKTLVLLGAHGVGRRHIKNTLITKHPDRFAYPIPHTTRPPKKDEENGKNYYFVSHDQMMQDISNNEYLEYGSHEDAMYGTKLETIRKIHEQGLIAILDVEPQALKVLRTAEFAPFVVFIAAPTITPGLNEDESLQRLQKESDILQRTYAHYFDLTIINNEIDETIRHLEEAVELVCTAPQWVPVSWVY
Procedure: as §1

CDC7/DBF4 = CDC7/DBF4 (Homo sapiens, UniProt O00311); assay: as above; conditions: IA107 at 5 μM
Procedure: as §1

CDK8/cyclin C = CDK8/cyclin C (Homo sapiens, UniProt P49336); assay: as above; conditions: IA107 at 5 μM
Procedure: as §1

DDR2 = DDR2 (Homo sapiens, UniProt Q16832); assay: as above; conditions: IA107 at 5 μM
DDR2, sequence (Q16832 22-855): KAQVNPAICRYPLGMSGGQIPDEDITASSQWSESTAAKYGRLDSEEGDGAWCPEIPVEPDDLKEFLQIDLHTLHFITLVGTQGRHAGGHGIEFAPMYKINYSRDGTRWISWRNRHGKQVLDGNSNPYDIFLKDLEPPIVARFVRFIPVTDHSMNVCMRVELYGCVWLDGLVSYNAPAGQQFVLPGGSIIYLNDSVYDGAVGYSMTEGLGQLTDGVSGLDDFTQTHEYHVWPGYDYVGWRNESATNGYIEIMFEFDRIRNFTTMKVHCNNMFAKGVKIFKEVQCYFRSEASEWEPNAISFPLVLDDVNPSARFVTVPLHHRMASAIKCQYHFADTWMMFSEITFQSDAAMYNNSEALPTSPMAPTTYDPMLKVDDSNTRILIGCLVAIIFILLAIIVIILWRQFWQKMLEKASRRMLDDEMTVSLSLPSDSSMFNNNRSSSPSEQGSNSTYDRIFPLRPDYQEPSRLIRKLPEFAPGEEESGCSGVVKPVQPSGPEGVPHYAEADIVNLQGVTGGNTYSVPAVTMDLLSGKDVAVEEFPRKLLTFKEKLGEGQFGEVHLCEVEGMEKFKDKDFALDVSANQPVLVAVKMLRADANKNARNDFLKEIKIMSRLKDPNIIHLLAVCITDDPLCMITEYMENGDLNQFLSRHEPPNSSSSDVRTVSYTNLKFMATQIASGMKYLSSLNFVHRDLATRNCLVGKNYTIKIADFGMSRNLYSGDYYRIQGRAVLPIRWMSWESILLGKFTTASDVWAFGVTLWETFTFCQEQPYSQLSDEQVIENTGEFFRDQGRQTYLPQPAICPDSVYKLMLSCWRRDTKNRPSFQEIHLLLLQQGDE
Procedure: as §1

LIMK1 = LIMK1 (Homo sapiens, UniProt P53667); assay: as above; conditions: IA107 at 5 μM
Procedure: as §1

MAP3K11 (MLK3) = MAP3K11 (MLK3) (Homo sapiens, UniProt Q16584); assay: as above; conditions: IA107 at 5 μM
MAP3K11 (MLK3), sequence (Q16584 whole entry): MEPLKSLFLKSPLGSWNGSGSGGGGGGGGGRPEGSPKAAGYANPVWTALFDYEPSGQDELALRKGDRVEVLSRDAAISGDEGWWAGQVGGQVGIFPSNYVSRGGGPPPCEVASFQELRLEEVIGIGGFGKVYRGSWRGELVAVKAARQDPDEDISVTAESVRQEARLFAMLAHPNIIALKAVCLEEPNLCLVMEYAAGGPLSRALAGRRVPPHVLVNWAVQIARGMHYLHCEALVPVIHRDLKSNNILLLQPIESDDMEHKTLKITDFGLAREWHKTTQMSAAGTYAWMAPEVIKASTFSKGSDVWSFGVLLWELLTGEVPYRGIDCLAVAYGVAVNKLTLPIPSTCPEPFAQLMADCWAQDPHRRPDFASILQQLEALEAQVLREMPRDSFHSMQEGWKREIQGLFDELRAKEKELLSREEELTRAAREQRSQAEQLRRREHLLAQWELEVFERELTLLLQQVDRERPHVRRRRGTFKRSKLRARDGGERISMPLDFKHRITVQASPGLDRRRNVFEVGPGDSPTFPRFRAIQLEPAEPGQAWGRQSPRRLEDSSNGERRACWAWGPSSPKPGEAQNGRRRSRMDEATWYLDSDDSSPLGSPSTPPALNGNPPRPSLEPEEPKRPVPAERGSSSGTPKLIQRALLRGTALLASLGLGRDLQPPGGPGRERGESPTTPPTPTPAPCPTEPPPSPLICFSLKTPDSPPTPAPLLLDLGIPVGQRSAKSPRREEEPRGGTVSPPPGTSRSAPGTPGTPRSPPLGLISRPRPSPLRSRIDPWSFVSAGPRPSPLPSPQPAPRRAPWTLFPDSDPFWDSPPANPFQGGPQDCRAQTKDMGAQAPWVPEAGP
Procedure: as §1

MAPK15 (ERK7) = MAPK15 (ERK7) (Homo sapiens, UniProt Q8TD08); assay: as above; conditions: IA107 at 5 μM
Procedure: as §1

STK38 (NDR) = STK38 (NDR) (Homo sapiens, UniProt Q15208); assay: as above; conditions: IA107 at 5 μM
Procedure: as §1

TGFBR1 (ALK5) = TGFBR1 (ALK5) (Homo sapiens, UniProt P36897); assay: as above; conditions: IA107 at 5 μM
Procedure: as §1

TLK1 = TLK1 (Homo sapiens, UniProt Q9UKI8); assay: as above; conditions: IA107 at 5 μM
Procedure: as §1

Compound `Cc1c(CCC(=O)O)c2cc(Br)ccc2n1C(=O)c1ccccc1` [IA107] has a Kd (dephosphorylated IRE1α) of 1.36 µM, an inhibition at 5 µM (ABL1) of 3% and an inhibition at 5 µM (ACVR1B (ALK4)) of -5%. For the same compound, the inhibition at 5 µM (AKT1 (PKB alpha)) was 0%, the inhibition at 5 µM (BTK) was 8% and the inhibition at 5 µM (CDK1/cyclin B) was 4%. It also gave an inhibition at 5 µM (CLK2) of 7%, an inhibition at 5 µM (DNA-PK) of -2% and an inhibition at 5 µM (DYRK1A) of 4%. For the same compound, the inhibition at 5 µM (EEF2K) was 5%, the inhibition at 5 µM (EPHA2) was 4% and the inhibition at 5 µM (EPHB4) was 3%. The inhibition at 5 µM (HIPK4) was 6%, the inhibition at 5 µM (IKBKB (IKK beta)) was 4% and the inhibition at 5 µM (LCK) was 8%. It also gave an inhibition at 5 µM (MAPKAPK2) of 5%, an inhibition at 5 µM (NEK1) of 17% and an inhibition at 5 µM (NTRK2 (TRKB)) of 5%. The inhibition at 5 µM (PDGFRB (PDGFR beta)) was 0%, the inhibition at 5 µM (PHKG2) was 26% and the inhibition at 5 µM (PRKACA (PKA)) was 9%. For the same compound, the inhibition at 5 µM (RPS6KA3 (RSK2)) was 1%, the inhibition at 5 µM (GSG2 (Haspin)) was 4% and the inhibition at 5 µM (ACVR1 (ALK2)) was 2%. For the same compound, the inhibition at 5 µM (BMPR2) was -4%, the inhibition at 5 µM (CASK) was -14% and the inhibition at 5 µM (CDC7/DBF4) was 8%. For the same compound, the inhibition at 5 µM (CDK8/cyclin C) was 35%, the inhibition at 5 µM (DDR2) was -1% and the inhibition at 5 µM (LIMK1) was -16%. The inhibition at 5 µM (MAP3K11 (MLK3)) was -3%, the inhibition at 5 µM (MAPK15 (ERK7)) was 17% and the inhibition at 5 µM (STK38 (NDR)) was 6%. For the same compound, the inhibition at 5 µM (TGFBR1 (ALK5)) was 54% and the inhibition at 5 µM (TLK1) was -12%.
